Laboratory results taken from patent US20240189328A1, “COMBINATION OF NOREPINEPHRINE REUPTAKE INHIBITOR AND A C[…] USE IN TREATING SLEEP APNEA” (APNIMED, INC. (DELAWARE), priority 2021, published 2024).

Tested on: participants with moderate to severe OSA
Assay: Open-label 4-period dose-escalation study of dronabinol+atomoxetine, polysomnography (Example 3)
Format: in vivo, human
Conditions: atomoxetine 80 mg alone, week 1 PSG, compared to baseline
Source text: This study is designed to assess the safety and efficacy for OSA of three escalating dose combinations of atomoxetine with dronabinol, compared to baseline and to atomoxetine alone.
The present study (SEED) is an open-label, 4 consecutive period dose-escalation study of combinations of atomoxetine and dronabinol in participants with moderate to severe OSA. Participants will undergo initial pre-screening to determine potential study eligibility. […] Only participants who meet all non-PSG enrollment criteria at Visit 1 are eligible for a screening PSG. On a case by case basis and with agreement of the Sponsor a PSG conducted at the site within 3 months may be used instead of the Screening PSG.
Participants who meet all enrollment criteria will receive an escalating dose of atomoxetine the first week: 3 days of atomoxetine 40 mg followed by 4 days of atomoxetine 80 mg. Participants will then receive escalating dose combinations of atomoxetine and dronabinol for the next 3 weeks. The weekly dose schedule is as follows: • Week 1: atomoxetine 40 mg×3 days, then 80 mg×4 days • Week 2: atomoxetine 40 mg/dronabinol 2.5 mg • Week 3: atomoxetine 80 mg/dronabinol 5 mg • Week 4: atomoxetine 80 mg/dronabinol 10 mg […]

CNCCC(Oc1ccccc1C)c1ccccc1 (single isomer, unassigned; (-)) [Ato 80 mg, (−)-N-Methyl-3-phenyl-3-(o-tolyloxy)-propylamine]
Hypoxic burden (HB4): significantly reduced
